The values that follow come from patent US9073880B2, “2-(2-phenylethenyl) 1,3-benzodiazepine derivatives useful for the treatment of cancer” (Yissum Research Development Company of the Hebrew …, priority 2010, dated 2015).

Holding throughout (format): cell-based
Assay [1] relates to human pancreatic cancer ASPC cells. The experiment in a line: Cell proliferation, ASPC (Example 4). To be noted: compound in 2-hydroxypropyl-β-cyclodextrin. The protocol: (§1) Human ovary cancer A2780 cells lines were seeded at a density of 5000 cells/well, human melanoma A375 cells were plated at a density of 2,500 cells/well, human colon carcinoma HCT15 cells were plated at a density of 3,000 cells/well, human prostate carcinoma PC3 cells were plated at a density of 1,500 cells/well, human breast carcinoma MCF7 cells were plated at a density of 5,000 cells/well, human breast carcinoma MDA MB 468 cells were plated at a density of 6,000 cells/well, human myeloma U266, RPMI8226 and CAG cells were plated at a density of 10,000 cells/well. All cells were plated in 96-well plates in 90 μl growth medium containing 10% FCS, 100 units/ml penicillin and 100 μg/ml streptomycin. Compound 3 was added a day later in […] of 1% DMSO in DDW to obtain final concentrations of 0, 0.1, 0.3, 1, 3, and 10 μM. The final concentration of DMSO (0.1% DMSO) was kept constant in all samples. Following exposure of the cells to compound 3 for 72 hours at 37° C., adhered cells were fixed in 0.5% gluteraldehyde in medium for 10 min, washed three times with DDW, once with 0.1M sodium borate buffer pH 8.5 and stained with 1% methylene blue dissolved in 0.1M borate buffer solution for 60 min. Excess dye was washed out and cell-bound dye was eluted with 200 μl/well of 0.1M HCl. The optical density values were read at 630 nm in ELISA plate reader. Non-adhered cells were exposed to WST-1 reagent for 5 hours following 72 hours treatment with the inhibitors, and optical density values were read at 630 nm in ELISA plate reader. The data was analyzed in Microsoft Excel, using the vehicle control as 100% proliferation. The assays were performed in triplicates. The values of IC50 were derived from the dose-dependent growth curves obtained.
(§2) Cell proliferation assay was performed as described in Example 2. The following cell line were plated in 96-well plates in 90 μl growth medium containing 10% FCS, 100 units/ml penicillin and 100 μg/ml streptomycin: human ovary cancer A2780 cells (4500 cells/well), human melanoma A375 (1500 cells/well) and YUMAC (2500 cells/well) cells, human colon carcinoma HCT15 (3000 cells/well) and HCT116 (2000 cells/well) cells, human prostate carcinoma PC3 (3000 cells/well), PC3MM2 (3500 cells/well) and DU145 (300 cells/well) cells, human hepatocarcinoma HepG2 (3000 cells/well), human Ewing sarcoma SK-ES-1 (4,500 cells/well), human glioblastoma U138MG (2,000 cells/well), human breast cancer T47D (4000 cells/well) and MDA-MB-468 (6000 cells/well) cells, human small cell lung carcinoma NCI-H1975 (5000 cells/well) cells, human osteosarcoma Saos-2 (5000 cells/well) cells, human pancreatic cancer ASPC (2500 cells/well) cells, human bladder carcinoma T24P (1000 cells/well) cells, human gastric cancer NCI-N87 (5000 cells/well) cells, human lymphoma KARPAS (5,000 cells/well) cells, human leukemia K562 (5,000 cells/well) cells and human multiple myeloma MM1S (10,000 cells/well), U266 (10,000 cells/well) and CAG (5,000 cells/well). Compounds 2-5 and 7-8 were added a day later in 10 μl of 0.7% 2-hydroxypropyl-β-cyclodextrin to obtain final concentrations of 0, 0.1, 0.3, 1, 3 and 10 μM.
(§3) Compounds 2-5 and 7-8 of the present invention were tested for their inhibitory potential in cell proliferation assay. […]

For assay [2], the system named is human breast cancer T47D cells. The experiment in a line: Cell proliferation, T47D (Example 4). To be noted: compound in 2-hydroxypropyl-β-cyclodextrin. The procedure: as §1
(§4) Cell proliferation assay was performed as described in Example 2. […]

In assay [3] the test system is human glioblastoma U138MG cells. In words: Cell proliferation, U138MG (Example 4). To be noted: U138-MG, compound in 2-hydroxypropyl-β-cyclodextrin. The protocol: as §1, §4
The subject of assay [4] is human colon carcinoma HCT116 cells. The experiment in a line: Cell proliferation, HCT116 (Example 4). The following applies: HCT-116, HCT116, colon cancer, compound in 2-hydroxypropyl-β-cyclodextrin. The protocol:
as §1, §2, §3

The subject of assay [5] is human multiple myeloma CAG cells. In words: Cell proliferation, CAG (Example 4). The following applies: compound in 2-hydroxypropyl-β-cyclodextrin. The procedure: as §1, §4
Assay [6] concerns Human ovary cancer A2780 cells. In words: Cell proliferation, A2780 (Example 4). The following applies: compound in 2-hydroxypropyl-β-cyclodextrin. The procedure:
as §1, §4

Assay [7] concerns human melanoma YUMAC cells. The experiment in a line: Cell proliferation, YUMAC (Example 4). To be noted: compound in 2-hydroxypropyl-β-cyclodextrin. The procedure:
as §1, §2, §3

For `O=c1c(O)cc2cnc(/C=C/c3cc(O)c(O)c(Br)c3)sc-2c1O` [Compound 3], the IC50 (usually the midpoint of a concentration-inhibition curve) in assay [1] worked out at 13100 nM; in assay [2], 1500 nM; in assay [3], 300 nM; in assay [4] it was 500 nM; in assay [5], 900 nM; in assay [6], 400 nM. This compound also showed an IC50 in assay [7] of 300 nM.
Turning to `O=c1c(O)cc2cnc(/C=C/c3ccc(O)c(O)c3Br)sc-2c1O` [Compound 5], the IC50 is 8200 nM in assay [1]; 1800 nM in assay [2]; 300 nM in assay [3]; 400 nM in assay [4]; 700 nM in assay [5]; 400 nM in assay [6]. The same compound had an IC50 in assay [7] of 200 nM.
